Measured values from patent US9562031B1, “Phenethyldihydrobenzodioxolones and methods of use” (Sequoia Sciences, Inc., priority 2015, dated 2017).
Several values for one entry are separate records, joined by “and”; a condition that tells them apart may be missing. Identical values can stand only once. Blank lines part the entries; values can stand above or below the molecule they belong to.

Tests used:
[1] = test system: NCI-H460 (lung) xenograft tumors; experiment: tumor growth inhibition, NCI-H460 murine xenograft model; assay type: in vivo, mice
Protocol: Tumor growth inhibition of compound 4 was measured in several murine xenograft models, and the results of individual experiments are listed in Table 14. Tumors were initiated by subcutaneous injection of either tumor cells from cell culture or tumor fragments from continuous in vivo passage. When tumors reached volumes between approximately 100 and 200 mm^3, the mice were divided into vehicle and treatment groups. Compound or vehicle was administered by IP injection in a volume of 5-10 mL/kg.
Changes in tumor weight (delta weights) for each treated (T) and control (C) group are calculated for each day tumors are measured by subtracting the median tumor weight on the first day of treatment (staging day) from the median tumor weight on the specified observation day. These values are used to calculate a percent T/C as follows: % T/C=(delta T/delta C)×100. The optimal T/C is the minimal value obtained after the first treatment.

[2] = compound concentrations in mouse plasma after IP injection (LC/MS); assay type: in vivo; conditions: mice, IP 40 mg/kg, 3-5 h after injection; vehicle 42.97% propylene glycol, 0.23% TWEEN-20, 31.5% PEG400, 15.3% ethanol, 10% water
Protocol: The bioavailabilities of certain compounds were examined in mice. Administration of the compounds was performed by intraperitoneal (IP) injection using a vehicle as known to those skilled in the art. To measure compound concentrations in plasma, blood is collected by cardiac puncture at a specified time after […]. It is then centrifuged in a plasma separator tube with NaEDTA/NaF as the anticoagulant, and the resulting plasma is stored at −80° C. For analysis, an internal standard is added to a 200 μL aliquot of plasma, and the aliquot is extracted with ethyl acetate. The ethyl acetate extract is analyzed by LC/MS and quantitated using a standard curve prepared by adding known amounts of test compound and internal standard to 200 μL aliquots of blank mouse plasma.
Many vehicles can be used to examine bioavailability. […]
Plasma concentrations were measured for several additional compounds. Table 12 lists plasma concentrations (as a multiple of the compound's IC50 against NCI-H460 cells) measured for these compounds at different time points after injection, along with the vehicle used.

[3] = test system: MDA-MB-468 cells; experiment: NCI-60 panel antiproliferation, MDA-MB-468; assay type: cell-based, human; conditions: Homo sapiens, NCI 60-cell panel
Protocol: (§1) Bifidenone and Compound 37 were tested for antiproliferation activity against the NCI-60 panel of cancer cell lines. COMPARE analysis was then conducted to compare the activity “fingerprint” of bifidenone to those of known classes of compounds (Zhou, B.-N., Hoch, J. M., Johnson, R. K., Mattern, M. R., Eng, W.-K., Ma, J., Hecht, S. M., Newman, D. J., Kingston, D. G. I., 2000. Use of COMPARE Analysis to Discover New Natural Product Drugs: Isolation of Camptothecin and 9-Methoxycamptothecin from a New Source. Journal of Natural Products 63, 1273-1276.).

[4] = test system: CCRF-CEM cells; experiment: NCI-60 panel antiproliferation, CCRF-CEM; assay type: cell-based, human; conditions: Homo sapiens, NCI 60-cell panel
Protocol: as §1

[5] = test system: Caki-1 cells; experiment: NCI-60 panel antiproliferation, Caki-1; assay type: cell-based, human; conditions: Homo sapiens, NCI 60-cell panel
Protocol: as §1

[6] = test system: Hs578T cells; experiment: NCI-60 panel antiproliferation, Hs578T; assay type: cell-based, human; conditions: Homo sapiens, Hs-578T, NCI 60-cell panel
Protocol: as §1

[7] = test system: HCT-15 cells; experiment: NCI-60 panel antiproliferation, HCT-15; assay type: cell-based, human; conditions: Homo sapiens, NCI 60-cell panel
Protocol: as §1

[8] = test system: HT29 cells; experiment: NCI-60 panel antiproliferation, HT29; assay type: cell-based, human; conditions: Homo sapiens, HT-29, NCI 60-cell panel
Protocol: as §1

[9] = test system: HCT-116 cells; experiment: NCI-60 panel antiproliferation, HCT-116; assay type: cell-based, human; conditions: Homo sapiens, NCI 60-cell panel
Protocol: as §1

[10] = test system: SF-268 cells; experiment: NCI-60 panel antiproliferation, SF-268; assay type: cell-based, human; conditions: Homo sapiens, NCI 60-cell panel
Protocol: as §1

[11] = test system: OVCAR-5 cells; experiment: NCI-60 panel antiproliferation, OVCAR-5; assay type: cell-based, human; conditions: Homo sapiens, NCI 60-cell panel
Protocol: as §1

[12] = test system: MCF-7 cells; experiment: NCI-60 panel antiproliferation, MCF-7; assay type: cell-based, human; conditions: Homo sapiens, MCF7, NCI 60-cell panel
Protocol: as §1

[13] = test system: OVCAR-4 cells; experiment: NCI-60 panel antiproliferation, OVCAR-4; assay type: cell-based, human; conditions: Homo sapiens, NCI 60-cell panel
Protocol: as §1

[14] = test system: KM12 cells; experiment: NCI-60 panel antiproliferation, KM12; assay type: cell-based, human; conditions: Homo sapiens, NCI 60-cell panel
Protocol: as §1

[15] = test system: SK-Mel-2 cells; experiment: NCI-60 panel antiproliferation, SK-MEL-2; assay type: cell-based, human; conditions: Homo sapiens, NCI 60-cell panel
Protocol: as §1

[16] = test system: NCI-H23 cells; experiment: NCI-60 panel antiproliferation, NCI-H23; assay type: cell-based, human; conditions: Homo sapiens, NCI 60-cell panel
Protocol: as §1

[17] = test system: A498 cells; experiment: NCI-60 panel antiproliferation, A498; assay type: cell-based, human; conditions: Homo sapiens, NCI 60-cell panel
Protocol: as §1

[18] = test system: SNB-75 cells; experiment: NCI-60 panel antiproliferation, SNB-75; assay type: cell-based, human; conditions: Homo sapiens, NCI 60-cell panel
Protocol: as §1

[19] = test system: T-47D cells; experiment: NCI-60 panel antiproliferation, T-47D; assay type: cell-based, human; conditions: Homo sapiens, T47D, NCI 60-cell panel
Protocol: as §1

[20] = test system: MDA-MB-231 cells; experiment: NCI-60 panel antiproliferation, MDA-MB-231; assay type: cell-based, human; conditions: Homo sapiens, NCI 60-cell panel
Protocol: as §1

[21] = test system: COLO205 cells; experiment: NCI-60 panel antiproliferation, COLO205; assay type: cell-based, human; conditions: Homo sapiens, COLO 205, NCI 60-cell panel
Protocol: as §1

[22] = IP 30 mg/kg, days 0,1,2,3,5,6,7,8,10,11,12,13
[23] = IP 60 mg/kg, days 0,1,2,5,6,7,10,11,12

plasma concentration relative to IC50 against NCI-H460 [2]: below its IC50
SMILES: C=CC[C@H]1C[C@]2([C@H](C)Cc3cc(O)c(OC)cc3F)OCOC2=CC1=O (relative stereo) [Compound 4, 6-allyl-7a-(1-(2-fluoro-5-hydroxy-4-methoxyphenyl)propan-2-yl)-7,7a-dihydrobenzo[d][1,3]dioxol-5(6H)-one]
Maximum Mean Body Weight Loss [1, 22]: 7%
Optimal T/C [1, 22]: 42%
Maximum Mean Body Weight Loss ([1]; IP 40 mg/kg, days 0,1,2,5,6,7,10,11,12 (two experiments)): 7%
Optimal T/C ([1]; IP 40 mg/kg, days 0,1,2,5,6,7,10,11,12 (two experiments), 40 mg/kg): 29% and 35%
Maximum Mean Body Weight Loss [1, 23]: 9%
Optimal T/C [1, 23]: 40%

SMILES: C=CC[C@H]1C[C@]2([C@@H](C)Cc3ccc(OC)c(F)c3)OCOC2=CC1=O [Compound 37, (6S,7aR)-6-allyl-7a-((S)-1-(3-fluoro-4-methoxyphenyl)propan-2-yl)-7,7a-dihydrobenzo[d][1,3]dioxol-5(6H)-one]
IC50 [3]: 59 nM
IC50 [4]: 60 nM
IC50 [5]: 97 nM
IC50 [6]: 72 nM
IC50 [7]: 56 nM
IC50 [8]: 88 nM
IC50 [9]: 115 nM
IC50 [10]: 623 nM
IC50 [11]: 119 nM
IC50 [12]: 63 nM
IC50 [13]: 117 nM
IC50 [14]: 55 nM
IC50 [15]: 51 nM
IC50 [16]: 123 nM
IC50 [17]: 58 nM
IC50 [18]: 49 nM
IC50 [19]: > 10 µM
IC50 [20]: 837 nM
IC50 [21]: 67 nM
